Reference: ChEMBL document CHEMBL6109084 (Eur J Med Chem, 2025)
pIC50: −log10 of the molar value. Converted amounts (≈) assume the structure as drawn. The source made the active and inactive calls. The rule behind the calls is not given here.

Tests used:
[1] = Acute toxicity in C57BL/6J mouse assessed as pathological changes in heart at 60 to 100 mg/kg, po administered as single dose for 14 days by H and E staining based analysis; assay type: organism-based; conditions: in vivo, 336 h, dose 60-100 mg/kg, time 14 day
[2] = Acute toxicity in C57BL/6J mouse assessed as effect on plasma ALP level at 60 to 100 mg/kg, po measured after 24 hrs; assay type: organism-based; conditions: in vivo, dose 60-100 mg/kg
[3] = Selectivity index, ratio of IC50 for inhibition of thrombin (unknown origin) using H-D-Phe-Pip-Arg-pNA.2HCl as substrate to IC50 for inhibition of human FXIa using p-Glu-Pro-Arg-pNA.HCl as substrate
[4] = Acute toxicity in C57BL/6J mouse assessed as effect on serum ALT level at 60 to 100 mg/kg, po administered as single dose for 14 days; assay type: organism-based; conditions: in vivo, 336 h, dose 60-100 mg/kg, time 14 day
[5] = Acute toxicity in C57BL/6J mouse assessed as effect on kidney weight at 60 to 100 mg/kg, po measured after 24 hrs; assay type: organism-based; conditions: in vivo, dose 60-100 mg/kg
[6] = Acute toxicity in C57BL/6J mouse assessed as effect on serum AST level at 60 to 100 mg/kg, po administered as single dose for 14 days; assay type: organism-based; conditions: in vivo, 336 h, dose 60-100 mg/kg, time 14 day
Coagulation factor XI = Coagulation factor XI (Homo sapiens, UniProt P03951); assay: Inhibition of human FXIa using p-Glu-Pro-Arg-pNA.HCl as substrate incubated for 30 mins followed by substrate addition and measured after 60 mins by microplate reader analysis
Chain of Coagulation factor XI (P03951 19-387 limits assumed): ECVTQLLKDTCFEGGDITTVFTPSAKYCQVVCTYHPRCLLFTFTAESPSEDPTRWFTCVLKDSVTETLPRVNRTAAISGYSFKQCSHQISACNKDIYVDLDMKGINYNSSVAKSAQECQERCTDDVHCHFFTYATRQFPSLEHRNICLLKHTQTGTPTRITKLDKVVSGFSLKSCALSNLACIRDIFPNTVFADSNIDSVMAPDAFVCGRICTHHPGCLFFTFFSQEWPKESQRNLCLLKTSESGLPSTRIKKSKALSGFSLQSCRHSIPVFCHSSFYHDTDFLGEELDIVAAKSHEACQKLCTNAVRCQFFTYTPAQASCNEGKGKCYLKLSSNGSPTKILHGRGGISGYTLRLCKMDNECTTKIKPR
Chain of Coagulation factor XI (P03951 388-625 limits assumed): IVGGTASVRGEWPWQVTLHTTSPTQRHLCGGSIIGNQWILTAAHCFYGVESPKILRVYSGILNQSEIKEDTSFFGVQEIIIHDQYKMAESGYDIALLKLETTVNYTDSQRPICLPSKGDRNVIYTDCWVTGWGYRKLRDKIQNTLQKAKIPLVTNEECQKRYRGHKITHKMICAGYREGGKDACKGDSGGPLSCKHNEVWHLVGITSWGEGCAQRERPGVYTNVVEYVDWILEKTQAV

physchem = conditions: aqueous medium, pH 7.4
Description: Aqueous solubility of the compound in DMSO at pH 7.4 incubated for 12 hrs by turbidimetric based UV spectrophotometric analysis

[7] = molecular target: Tissue-type plasminogen activator (Homo sapiens, UniProt P00750); assay: Inhibition of tPA (unknown origin) using H-D-Ile-Pro-Arg-pNA-2HCl as substrate incubated for 30 mins followed by substrate addition and measured after 60 mins by microplate reader analysis
Chain of Tissue-type plasminogen activator (P00750 whole entry): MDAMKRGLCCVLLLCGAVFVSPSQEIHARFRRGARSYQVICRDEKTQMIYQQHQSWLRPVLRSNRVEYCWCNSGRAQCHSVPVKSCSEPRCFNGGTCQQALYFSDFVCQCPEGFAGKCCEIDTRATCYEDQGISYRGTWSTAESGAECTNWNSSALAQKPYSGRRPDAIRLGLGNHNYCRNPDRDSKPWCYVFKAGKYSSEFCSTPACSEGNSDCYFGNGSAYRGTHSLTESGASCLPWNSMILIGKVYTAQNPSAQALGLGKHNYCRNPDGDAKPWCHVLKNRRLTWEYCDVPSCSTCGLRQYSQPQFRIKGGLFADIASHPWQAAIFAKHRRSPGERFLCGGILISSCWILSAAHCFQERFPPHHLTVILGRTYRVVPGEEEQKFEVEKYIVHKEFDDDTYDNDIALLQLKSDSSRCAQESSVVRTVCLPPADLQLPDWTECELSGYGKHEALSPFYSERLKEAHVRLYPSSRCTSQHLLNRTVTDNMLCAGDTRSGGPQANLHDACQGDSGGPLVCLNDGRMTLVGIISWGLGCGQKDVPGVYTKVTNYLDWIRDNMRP

Mus musculus [8] = assay: Antithrombotic activity in FeCl3-induced carotid arterial thrombosis C57BL/6J mouse model assessed as increase in peak velocity at 10 mg/kg, po measured after 2 to 4 hrs; assay type: functional, organism-based; conditions: time 2-4 hrs
[9] = Toxicity in C57BL/6J mouse assessed as prolongation of bleeding time at 30 to 60 mg/kg, IG measured after 30 mins by tail bleeding assay; assay type: organism-based; conditions: in vivo, po, 0.5 h, dose 30-60 mg/kg
HepG2 = assay: Cytotoxicity against human HepG2 cells assessed as reduction in cell viability at 1 to 50 uM incubated for 24 hrs by MTT assay; assay type: toxicity, cell-based; conditions: hepg2, 24 h, dose 1-50 µM
[10] = Acute toxicity in C57BL/6J mouse assessed as effect on liver weight at 60 to 100 mg/kg, po measured after 24 hrs; assay type: organism-based; conditions: in vivo, dose 60-100 mg/kg
[11] = Acute toxicity in C57BL/6J mouse assessed as weight loss at 60 to 100 mg/kg, po administered as single dose for 14 days; assay type: organism-based; conditions: in vivo, 336 h, dose 60-100 mg/kg, time 14 day
[12] = Acute toxicity in C57BL/6J mouse assessed as effect on lung weight at 60 to 100 mg/kg, po measured after 24 hrs; assay type: organism-based; conditions: in vivo, dose 60-100 mg/kg
[13] = Selectivity index, ratio of IC50 for inhibition of trypsin (unknown origin) using Bz-Ile-Glu(gamma-OR)-Gly-Arg-pNA.HCl as substrate to IC50 for inhibition of human FXIa using p-Glu-Pro-Arg-pNA.HCl as substrate
Mus musculus [14] = assay: Antithrombotic activity in po dosed FeCl3-induced carotid arterial thrombosis C57BL/6J mouse model assessed as increase in mean blood flow velocity measured after 0.5 hrs; assay type: functional, organism-based; conditions: dose 5-30 mg/kg
[15] = Selectivity index, ratio of IC50 for inhibition of chymotrypsin (unknown origin) using N-Suc-Ala-Ala-Pro-Phe-pNA as substrate to IC50 for inhibition of human FXIa using p-Glu-Pro-Arg-pNA.HCl as substrate
Plasminogen = Plasminogen (Homo sapiens, UniProt P00747); assay: Inhibition of plasmin (unknown origin) using PyroGlu-Phe-Lys-pNA.HCl as substrate incubated for 30 mins followed by substrate addition and measured after 60 mins by microplate reader analysis
Chain of Plasminogen (P00747 97-580 limits assumed): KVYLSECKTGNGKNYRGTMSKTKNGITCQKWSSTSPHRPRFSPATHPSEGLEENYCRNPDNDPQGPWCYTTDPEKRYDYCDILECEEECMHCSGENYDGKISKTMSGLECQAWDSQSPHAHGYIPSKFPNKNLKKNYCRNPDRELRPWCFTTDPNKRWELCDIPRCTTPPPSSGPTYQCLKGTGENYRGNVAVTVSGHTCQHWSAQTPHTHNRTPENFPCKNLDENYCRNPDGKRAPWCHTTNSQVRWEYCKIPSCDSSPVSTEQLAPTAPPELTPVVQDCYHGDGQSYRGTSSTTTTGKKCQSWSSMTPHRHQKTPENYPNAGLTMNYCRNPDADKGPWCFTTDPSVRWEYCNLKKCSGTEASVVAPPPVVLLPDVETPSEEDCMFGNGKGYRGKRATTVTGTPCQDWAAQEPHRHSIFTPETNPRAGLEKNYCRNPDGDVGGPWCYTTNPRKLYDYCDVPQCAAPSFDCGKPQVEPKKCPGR
Chain of Plasminogen (P00747 581-810 limits assumed): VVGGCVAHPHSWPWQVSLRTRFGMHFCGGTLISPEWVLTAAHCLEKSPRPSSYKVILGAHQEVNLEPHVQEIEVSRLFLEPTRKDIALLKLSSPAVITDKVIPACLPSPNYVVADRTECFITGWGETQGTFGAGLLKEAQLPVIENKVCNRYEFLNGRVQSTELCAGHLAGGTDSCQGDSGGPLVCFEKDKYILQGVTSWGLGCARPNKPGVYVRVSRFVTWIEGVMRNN

Plasma [16] = assay: Anticoagulant activity in citrated human plasma assessed as prolongation of prothrombin time incubated for 3 mins by PT reagent based automated coagulometric analysis; assay type: functional, cell-free
[17] = Selectivity index, ratio of IC50 for inhibition of plasmin (unknown origin) using PyroGlu-Phe-Lys-pNA.HCl as substrate to IC50 for inhibition of human FXIa using p-Glu-Pro-Arg-pNA.HCl as substrate
[18] = Acute toxicity in C57BL/6J mouse assessed as effect on serum aspartate aminotransferase level at 60 to 100 mg/kg, po measured after 24 hrs; assay type: organism-based; conditions: in vivo, dose 60-100 mg/kg
Plasma [19] = assay: Anticoagulant activity in citrated human plasma assessed as prolongation of activated partial thromboplastin time incubated for 3 mins by aPTT reagent based automated coagulometric analysis; assay type: functional
[20] = Acute toxicity in C57BL/6J mouse assessed as pathological changes in spleen at 60 to 100 mg/kg, po administered as single dose for 14 days by H and E staining based analysis; assay type: organism-based; conditions: in vivo, 336 h, dose 60-100 mg/kg, time 14 day
Oryctolagus cuniculus [21] = assay: Antithrombotic activity in FeCl3-induced carotid arterial thrombosis male New Zealand white rabbits model assessed as reduction in dry thrombus weight at 2 mg/kg, iv preincubated for 30 mins followed by FeCl3 application for 5 and measured after 45 mins relative to control; assay type: functional; set-up: scale not given: the % may be the effect or the level left; conditions: time 80 min, 1.333 h
Mus musculus [22] = assay: Antithrombotic activity in FeCl3-induced carotid arterial thrombosis C57BL/6J mouse model assessed as increase in blood flow velocity at 10 mg/kg, po measured after 2 to 4 hrs; assay type: functional, organism-based; conditions: time 2-4 hrs
Chymotrypsin = Chymotrypsin (Homo sapiens, UniProt Q99895+P17538+P40313+Q6GPI1); assay: Inhibition of chymotrypsin (unknown origin) using N-Suc-Ala-Ala-Pro-Phe-pNA as substrate incubated for 30 mins followed by substrate addition and measured after 60 mins by microplate reader analysis; assay type: protein assay
Oryctolagus cuniculus [23] = assay: Antithrombotic activity in FeCl3-induced carotid arterial thrombosis male New Zealand white rabbits model assessed as reduction in wet thrombus weight at 6 mg/kg, iv preincubated for 30 mins followed by FeCl3 application for 5 mins and measured after 30 mins relative to control; assay type: functional, organism-based; conditions: time 65.0 min
[24] = Acute toxicity in C57BL/6J mouse assessed as effect on heart weight at 60 to 100 mg/kg, po measured after 24 hrs; assay type: organism-based; conditions: in vivo, dose 60-100 mg/kg
HK-2 = assay: Cytotoxicity against human HK-2 cells assessed as reduction in cell viability at 1 to 50 uM incubated for 24 hrs by MTT assay; assay type: toxicity, cell-based; conditions: hk-2, 24 h, dose 1-50 µM
[25] = Acute toxicity in C57BL/6J mouse assessed as pathological changes in lung at 60 to 100 mg/kg, po administered as single dose for 14 days by H and E staining based analysis; assay type: organism-based; conditions: in vivo, 336 h, dose 60-100 mg/kg, time 14 day

COc1cn(Cc2cc(-c3ccc(N)nc3F)ccn2)c(=O)cc1-c1cc(Cl)ccc1-n1cnnn1
Activity [1]: Non-toxic | Activity [2]: Non-toxic | Ratio IC50 [3]: > 1000 | Activity [4]: Non-toxic | Activity [5]: Non-toxic | Activity [6]: Non-toxic | pIC50 (Coagulation factor XI): 9.72 | solubility kinetic at 12 h (physchem): 122 µg/mL (≈ 242 µM) | pIC50 [7]: < 6.00 | Activity (Mus musculus [8]): Active; Pronounced Increase Observed Compared To Compound F | Activity [9]: Non-toxic | Activity (HepG2): Non-toxic | Activity [10]: Non-toxic | Activity [11]: Non-toxic | Activity [12]: Non-toxic | Ratio IC50 [13]: > 1000 | Activity (Mus musculus [14]): Dose-dependent-effect | Ratio IC50 [15]: > 1000 | pIC50 (Plasminogen): < 6.00 | Activity (Plasma [16]): inactive | Ratio IC50 [17]: > 1000 | Activity [18]: Non-toxic | Activity (Plasma [19]): Dose-dependent-effect | EC1.5 (Plasma [19]; 0.05 h): 0.43 µM | Activity [20]: Non-toxic | Activity (Oryctolagus cuniculus [21]): >50% | Activity (Mus musculus [22]): Active; Pronounced Increase Observed Compared To Compound F | IC50 (Chymotrypsin): > 1000 nM | Activity (Oryctolagus cuniculus [23]): Active; Outperformed Asundexian Reducing Thrombus Weight | Activity [24]: Non-toxic | Activity (HK-2): Non-toxic | Activity [25]: Non-toxic
